From the supplement of paper PMC11451515

Experiments:
Conditions in all cases: 48 h
NOMO1 [1] = test: cell viability relative to DMSO control; higher = less cytotoxic
Outline: (§1)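 In 1536-well plates, 5 μl of leukemia cells were seeded per well: 500 cells/well for NOMO1 or SEM and 1000 cells/well for P12-Ichikawa. Each line had first been adapted for at least four passages in each medium. Library compounds in DMSO were pin-dosed at 11 threefold concentrations between 47 μM and 0.79 nM, and CellTiter-Glo One luminescence was read after 48 h at 37°C. Viability is a per-plate percentage relative to DMSO wells, with cell-free wells as background.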

SEM cells [2] = test: as above
Outline: as §1

P12-Ichikawa [3] = test: as above
Outline: as §1

NOMO1 [4] = test: AUC of viability dose-response curve (% viability x log10 dose units); higher = less sensitive
Outline: (§2)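 Viability of medium-adapted leukemia cells was measured by CellTiter-Glo One luminescence after 48 h at 37°C with library compounds in DMSO. Doses were 11 threefold steps from 47 μM to 0.79 nM, in 1536-well plates at 500 or 1000 cells/well. Signals were normalised per plate to DMSO and cell-free wells and fitted with a four-parameter log-logistic model on log10 dose. Area under the curve was integrated by trapezoidal rule, with curves exceeding full viability scaled and failed quality-control curves removed.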

SEM cells [5] = test: as above
Outline: as §2

P12-Ichikawa [6] = test: as above
Outline: as §2

CC(C)N(CCCNC(=O)Nc1ccc(C(C)(C)C)cc1)C[C@H]1O[C@@H](n2cc(Br)c3c(N)ncnc32)[C@H](O)[C@@H]1O
cell viability [%]
Conditions | NOMO1 [1] | P12-Ichikawa [3] | SEM cells [2]
HPLM + 10% dialyzed FBS, 0.000781 µM | 98.3 | 85.8 | 87.3
HPLM + 10% dialyzed FBS, 0.00234 µM | 101 | 89.9 | 99.8
HPLM + 10% dialyzed FBS, 0.00702 µM | 112 | 92.2 | 96.6
HPLM + 10% dialyzed FBS, 0.0211 µM | 84.5 | 93 | 98.8
HPLM + 10% dialyzed FBS, 0.0632 µM | 105 | 97 | 105
HPLM + 10% dialyzed FBS, 0.19 µM | 106 | 94 | 101
HPLM + 10% dialyzed FBS, 0.569 µM | 110 | 97.9 | 85.1
HPLM + 10% dialyzed FBS, 1.71 µM | 95.1 | 88 | 98.4
HPLM + 10% dialyzed FBS, 5.12 µM | 85.4 | 81.4 | 104
HPLM + 10% dialyzed FBS, 15.4 µM | 71.4 | 77.8 | 72.4
HPLM + 10% dialyzed FBS, 46.1 µM | 9.86 | 13.8 | 18
RPMI 5 mM glucose + 10% FBS, 0.000781 µM | 80 | 87.3 | 83.1
RPMI 5 mM glucose + 10% FBS, 0.00234 µM | 96.3 | 91.6 | 98.3
RPMI 5 mM glucose + 10% FBS, 0.00702 µM | 88.7 | 90.8 | 115
RPMI 5 mM glucose + 10% FBS, 0.0211 µM | 87.8 | 86.1 | 104
RPMI 5 mM glucose + 10% FBS, 0.0632 µM | 86 | 87.1 | 114
RPMI 5 mM glucose + 10% FBS, 0.19 µM | 80.8 | 87.2 | 109
RPMI 5 mM glucose + 10% FBS, 0.569 µM | 92.2 | 91.5 | 106
RPMI 5 mM glucose + 10% FBS, 1.71 µM | 80.9 | 85.8 | 104
RPMI 5 mM glucose + 10% FBS, 5.12 µM | 94.2 | 87.1 | 77.4
RPMI 5 mM glucose + 10% FBS, 15.4 µM | 73.8 | 74 | 77.2
RPMI 5 mM glucose + 10% FBS, 46.1 µM | 31.8 | 47.2 | 17.1
RPMI 5 mM glucose + 10% dialyzed FBS, 0.000781 µM | 86.4 | 83.5 | 67.2
RPMI 5 mM glucose + 10% dialyzed FBS, 0.00234 µM | 81.3 | 90 | 92.6
RPMI 5 mM glucose + 10% dialyzed FBS, 0.00702 µM | 93.6 | 89.6 | 98.9
RPMI 5 mM glucose + 10% dialyzed FBS, 0.0211 µM | 105 | 88.3 | 92.5
RPMI 5 mM glucose + 10% dialyzed FBS, 0.0632 µM | 90.1 | 85.4 | 89.7
RPMI 5 mM glucose + 10% dialyzed FBS, 0.19 µM | 86.3 | 88.6 | 91.4
RPMI 5 mM glucose + 10% dialyzed FBS, 0.569 µM | 81.6 | 91.8 | 87.7
RPMI 5 mM glucose + 10% dialyzed FBS, 1.71 µM | 82.2 | 80.1 | 80.2
RPMI 5 mM glucose + 10% dialyzed FBS, 5.12 µM | 90.5 | 85.4 | 83.5
RPMI 5 mM glucose + 10% dialyzed FBS, 15.4 µM | 68.8 | 68.9 | 78.9
RPMI 5 mM glucose + 10% dialyzed FBS, 46.1 µM | 26.2 | 39.2 | 26.3

AUC of viability dose-response curve
Conditions | NOMO1 [4] | P12-Ichikawa [6] | SEM cells [5]
HPLM + 10% dialyzed FBS | 433 | 409 | 433
RPMI 5 mM glucose + 10% FBS | 397 | 405 | 434
RPMI 5 mM glucose + 10% dialyzed FBS | 398 | 395 | 397

NC/1=N/C(=O)C2=C([NH]C=C2CCC3=CC=C(C=C3)C(=O)N[C@@H](CCC(O)=O)C(O)=O)N1
cell viability [%]
Conditions | NOMO1 [1] | P12-Ichikawa [3] | SEM cells [2]
HPLM + 10% dialyzed FBS, 0.000781 µM | 107 | 106 | 118
HPLM + 10% dialyzed FBS, 0.00234 µM | 99.2 | 109 | 103
HPLM + 10% dialyzed FBS, 0.00702 µM | 110 | 106 | 107
HPLM + 10% dialyzed FBS, 0.0211 µM | 104 | 107 | 115
HPLM + 10% dialyzed FBS, 0.0632 µM | 107 | 99.8 | 114
HPLM + 10% dialyzed FBS, 0.19 µM | 116 | 114 | 110
HPLM + 10% dialyzed FBS, 0.569 µM | 78.2 | 105 | 80.2
HPLM + 10% dialyzed FBS, 1.71 µM | 46.2 | 64.4 | 45.7
HPLM + 10% dialyzed FBS, 5.12 µM | 41.8 | 35.4 | 39.4
HPLM + 10% dialyzed FBS, 15.4 µM | 38.8 | 29.3 | 38.3
HPLM + 10% dialyzed FBS, 46.1 µM | 29.7 | 28.2 | 35.8
RPMI 5 mM glucose + 10% FBS, 0.000781 µM | 88 | 102 | 98.3
RPMI 5 mM glucose + 10% FBS, 0.00234 µM | 92.2 | 113 | 105
RPMI 5 mM glucose + 10% FBS, 0.00702 µM | 103 | 108 | 103
RPMI 5 mM glucose + 10% FBS, 0.0211 µM | 94.2 | 107 | 107
RPMI 5 mM glucose + 10% FBS, 0.0632 µM | 96.2 | 110 | 99.7
RPMI 5 mM glucose + 10% FBS, 0.19 µM | 94.4 | 108 | 107
RPMI 5 mM glucose + 10% FBS, 0.569 µM | 93.9 | 96.9 | 91.9
RPMI 5 mM glucose + 10% FBS, 1.71 µM | 112 | 90 | 100
RPMI 5 mM glucose + 10% FBS, 5.12 µM | 92.5 | 64.5 | 83.2
RPMI 5 mM glucose + 10% FBS, 15.4 µM | 78.9 | 54.9 | 73.9
RPMI 5 mM glucose + 10% FBS, 46.1 µM | 75.5 | 47.5 | 69.8
RPMI 5 mM glucose + 10% dialyzed FBS, 0.000781 µM | 104 | 96.5 | 98.8
RPMI 5 mM glucose + 10% dialyzed FBS, 0.00234 µM | 91.4 | 106 | 95
RPMI 5 mM glucose + 10% dialyzed FBS, 0.00702 µM | 96 | 103 | 100
RPMI 5 mM glucose + 10% dialyzed FBS, 0.0211 µM | 105 | 103 | 97.3
RPMI 5 mM glucose + 10% dialyzed FBS, 0.0632 µM | 103 | 104 | 97
RPMI 5 mM glucose + 10% dialyzed FBS, 0.19 µM | 104 | 104 | 107
RPMI 5 mM glucose + 10% dialyzed FBS, 0.569 µM | 103 | 99.1 | 109
RPMI 5 mM glucose + 10% dialyzed FBS, 1.71 µM | 86 | 88.4 | 52.2
RPMI 5 mM glucose + 10% dialyzed FBS, 5.12 µM | 40.5 | 56.1 | 36.2
RPMI 5 mM glucose + 10% dialyzed FBS, 15.4 µM | 40.1 | 48.1 | 32.3
RPMI 5 mM glucose + 10% dialyzed FBS, 46.1 µM | 38.3 | 44.4 | 23.3

AUC of viability dose-response curve
Conditions | NOMO1 [4] | P12-Ichikawa [6] | SEM cells [5]
HPLM + 10% dialyzed FBS | 358 | 372 | 355
RPMI 5 mM glucose + 10% FBS | 446 | 408 | 444
RPMI 5 mM glucose + 10% dialyzed FBS | 398 | 409 | 371

NC(=O)[C@@H](CCC(F)(F)F)N(Cc1ccc(-c2ncon2)cc1F)[S+](=O)([O-])c1ccc(Cl)cc1
cell viability [%]
Conditions | NOMO1 [1] | P12-Ichikawa [3] | SEM cells [2]
HPLM + 10% dialyzed FBS, 0.000781 µM | 107 | 105 | 96.6
HPLM + 10% dialyzed FBS, 0.00234 µM | 106 | 98.7 | 106
HPLM + 10% dialyzed FBS, 0.00702 µM | 113 | 98.7 | 102
HPLM + 10% dialyzed FBS, 0.0211 µM | 108 | 103 | 106
HPLM + 10% dialyzed FBS, 0.0632 µM | 109 | 92.4 | 103
HPLM + 10% dialyzed FBS, 0.19 µM | 105 | 96.2 | 98.8
HPLM + 10% dialyzed FBS, 0.569 µM | 97.5 | 96.1 | 81.4
HPLM + 10% dialyzed FBS, 1.71 µM | 91.7 | 89.4 | 90.9
HPLM + 10% dialyzed FBS, 5.12 µM | 96.3 | 87.1 | 91.5
HPLM + 10% dialyzed FBS, 15.4 µM | 71 | 80 | 72.2
HPLM + 10% dialyzed FBS, 46.1 µM | 3.05 | 5.81 | 4.51
RPMI 5 mM glucose + 10% FBS, 0.000781 µM | 92.8 | 92.4 | 114
RPMI 5 mM glucose + 10% FBS, 0.00234 µM | 103 | 95 | 108
RPMI 5 mM glucose + 10% FBS, 0.00702 µM | 91.1 | 84.6 | 104
RPMI 5 mM glucose + 10% FBS, 0.0211 µM | 90.6 | 101 | 114
RPMI 5 mM glucose + 10% FBS, 0.0632 µM | 97.8 | 100 | 114
RPMI 5 mM glucose + 10% FBS, 0.19 µM | 96.3 | 88.8 | 92.9
RPMI 5 mM glucose + 10% FBS, 0.569 µM | 78.5 | 86.3 | 83.8
RPMI 5 mM glucose + 10% FBS, 1.71 µM | 73.9 | 90.3 | 81.9
RPMI 5 mM glucose + 10% FBS, 5.12 µM | 84.6 | 81.6 | 84.3
RPMI 5 mM glucose + 10% FBS, 15.4 µM | 77.2 | 80.9 | 30
RPMI 5 mM glucose + 10% FBS, 46.1 µM | 61 | 58 | 2.87
RPMI 5 mM glucose + 10% dialyzed FBS, 0.000781 µM | 94.4 | 94.6 | 84.4
RPMI 5 mM glucose + 10% dialyzed FBS, 0.00234 µM | 93 | 88.2 | 98.6
RPMI 5 mM glucose + 10% dialyzed FBS, 0.00702 µM | 97.1 | 96.5 | 98.2
RPMI 5 mM glucose + 10% dialyzed FBS, 0.0211 µM | 88.3 | 92.3 | 98.7
RPMI 5 mM glucose + 10% dialyzed FBS, 0.0632 µM | 96.9 | 92.8 | 86.3
RPMI 5 mM glucose + 10% dialyzed FBS, 0.19 µM | 105 | 87.3 | 88.6
RPMI 5 mM glucose + 10% dialyzed FBS, 0.569 µM | 87 | 81.7 | 95.8
RPMI 5 mM glucose + 10% dialyzed FBS, 1.71 µM | 83.2 | 84.8 | 79.5
RPMI 5 mM glucose + 10% dialyzed FBS, 5.12 µM | 88.5 | 83.8 | 70.9
RPMI 5 mM glucose + 10% dialyzed FBS, 15.4 µM | 81.6 | 84.2 | 52.3
RPMI 5 mM glucose + 10% dialyzed FBS, 46.1 µM | 50.2 | 6.79 | 2.93

AUC of viability dose-response curve
Conditions | NOMO1 [4] | P12-Ichikawa [6] | SEM cells [5]
HPLM + 10% dialyzed FBS | 436 | 430 | 430
RPMI 5 mM glucose + 10% FBS | 413 | 421 | 381
RPMI 5 mM glucose + 10% dialyzed FBS | 426 | 403 | 385
